In US20160207930A1 (LEO PHARMA A/S, priority 2013, published 2016):

How the values were obtained:
NK1 Receptor = target: T1, NK1 Receptor (Homo sapiens, UniProt P25103); assay: NK1 receptor mediated intracellular [Ca2+] mobilization in U251 MG cells using FLIPR; type: cell-based; conditions: antagonism of Substance P (EC80), Fluo-4, read-out: NK1R mediated intracellular [Ca^2+] mobilization IC 50
T1 construct: Measurement of NK1 Receptor Mediated Intracellular [Ca^2+]; Mobilization in U251 MG Cells Using FLIPR; endogenous in cells; host or cells: U251 MG cells
Method: Measurement of NK1 Receptor Mediated Intracellular [Ca^2+] Mobilization in U251 MG Cells Using FLIPR
U251 MG cells were seeded into black walled clear-bottom 384-well plates (Greiner Bio-One GmbH, Frickenhausen, Germany) at a density of 15,000 cells/well in 50 μl culture medium and cultured overnight in a 37° C. 5% CO2 incubator. The cells were then loaded with the calcium sensitive dye Fluo-4 (Invitrogen) at 1 μM in buffer, containing 0.04% Pluronic F-127 (Sigma-Aldrich), and 2.5 mM probenecid (Sigma-Aldrich) for 60 min in a humidified atmosphere of 5% CO2. Thereafter, cells were washed three times in washing buffer containing 20 mM HEPES and 2.5 mM probenecid pH 7.3. Serial dilutions of test compounds in assay buffer containing 2% dimethyl sulfoxide (final concentration in the cell plate is 0.5% DMSO) and/or agonist were then automatically pipetted into each test well, and the peak fluorescence intensity was recorded (lex, 488 nm; lem, 540 nm) by the FLIPR instrument (Molecular Devices) for approximately 5 min. To measure antagonist potency, cell plates were first incubated with the test compound and intracellular fluorescence recorded for 5 minutes to check a potential agonist effect of the test compound. Cell plates were quickly removed from the FLIPR instrument and incubated for additional 10 minutes at 37° C. before being moved back to the FLIPR instrument for Substance P (EC80) addition. The response was measured as the peak relative fluorescence change after agonist addition.
Compound relative %-effect was normalized to the maximal response evoked by 100 nM Aprepitant in presence of the EC80 of Substance P and the antagonist potency determined by non-linear regression using GraphPad Prism (version 5) or the four-parameter logistic model in XLfit (IDBS, Guilford, UK) for Microsoft Excel (Microsoft, Redmond, Wash.). The IC50 value is defined as the molar concentration of a test compound that produces a response midway between the fitted top and the fitted bottom. pIC50=−log IC50
Formula is listed as follows:
Fit (% Effect calculated)=(A+((B−A)/(1+((C/X)̂D)))) • A: bottom value • B: top value • C: test compound concentration • X: Relative IC50 • D: Hill slope coefficient
Ref: Sullivan E, Tucker E M, and Dale I L. Measurement of [Ca^2+] using the Fluorometric Imaging Plate Reader (FLIPR). Methods Mol Biol 114:125-133, 1999.
Compounds of the present invention were tested according to example 100.

[1] = Hepatic intrinsic clearance following incubation in human liver microsomes; type: in vitro ADME; conditions: 0.5 μM test compound, NADPH, 0-30 min, scaled to g liver
Method: Hepatic Extraction Ratio from Hepatic Intrinsic Clearance Following Incubation in Human Liver Microsomes
The general procedure consists of an automated incubation system and LC-MS/MS analysis with human liver microsomes. Human liver microsomes are thawed rapidly in a waterbath at 37° C. and kept on ice until use. The human liver microsomes are diluted with 50 mM potassium phosphate buffer pH 7.4 to a protein concentration of 0.55 mg/mL. Test compounds and positive controls (Verapamil and Dextromethorphan, positive controls for CYP3A4 for CYP2D6 isoforms, respectively) are dissolved in methanol (or other appropriate solvent, if necessary) in order to obtain a 5 mM solution which is further diluted to the concentration of 50 μM. The stock solutions are prepared immediately before the test.
5 μL of 50 μM test compounds and controls are added to 445 μL-of the 0.55 mg/mL microsomes solution and the incubation mixture are pre-warmed at 37° C. for 5 minutes. The incubation reactions are initiated by adding 50 μL of pre-warmed NADPH regenerating system to the incubation mixtures. 50 μL-aliquots will be taken from the incubation mixtures at: 0, 3, 6, 9, 15 and 30 minutes and the reactions are stopped by adding 100 μL of ACN containing Rolipram, used as generic Internal Standard (IS). Samples are then diluted with 120 μL of Milli-Q water and centrifuged at 3000 rpm for 10 minutes, prior the LC-MS/MS analysis.
The integrated peak areas for test compounds at the selected time points are divided by the respective peak areas of the IS and the percent of parent remaining is calculated by normalizing the peak area ratio of parent to IS at 0 min. Observed rate constant (kobs) for parent degradation is calculated by determining the slope of the line of the graph of the natural log of percentage parent remaining versus time of incubation. From the rate of depletion (min−1) and volume of the incubation (mL), clearance is estimated. This is scaled for the protein in the incubation relative to that in the intact liver, for all species (mL/min/g liver).
Values for the Human in vitro Clint are expressed as mL/min/g liver.
Assuming a liver weight of 25.7 g/kg and a liver blood flow of 20.7 mL/min/kg, the hepatic extraction ratio, Eh, can be derived from the Human in vitro Clint:
E.g. a Human in vitro Clint of 2.4 mL/min/g liver corresponds to a hepatic extraction ratio of 75%.
Some compounds of the present invention were tested according to example 101.

T1 sequence (P25103 whole entry): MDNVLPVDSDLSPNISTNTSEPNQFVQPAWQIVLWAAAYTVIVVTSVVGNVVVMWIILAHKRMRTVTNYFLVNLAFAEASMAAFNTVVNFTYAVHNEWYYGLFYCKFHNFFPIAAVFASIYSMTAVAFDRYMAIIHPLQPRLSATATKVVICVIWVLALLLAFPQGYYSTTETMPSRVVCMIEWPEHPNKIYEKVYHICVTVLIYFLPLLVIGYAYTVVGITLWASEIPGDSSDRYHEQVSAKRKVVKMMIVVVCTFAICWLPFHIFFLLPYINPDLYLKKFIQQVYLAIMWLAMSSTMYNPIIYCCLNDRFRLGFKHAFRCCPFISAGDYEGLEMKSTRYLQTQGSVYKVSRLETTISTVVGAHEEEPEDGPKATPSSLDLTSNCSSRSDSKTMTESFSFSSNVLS

Compound	IC50 (NK1 Receptor)	Human in vitro Clint [1]
Cc1ccc(C2C3CC(CCO)(CCO)C(=O)N3CCN2C(=O)N(C)[C@H](C)c2cc(C(F)(F)F)cc(C(F)(F)F)c2)c(C)c1 (single isomer, unassigned) [Compound 6]	1.59 nM	>200 mL/min/g
Cc1cc([C@@H](C)N(C)C(=O)N2CCN3C(=O)C(CCO)(CCO)CC3C2c2ccc(F)cc2C)cc(C(F)(F)F)c1 (single isomer, unassigned) [Compound 12]	0.622 nM	>200 mL/min/g
Cc1cc(F)ccc1C1C2CC(CCO)(CCO)C(=O)N2CCN1C(=O)N(C)[C@H](C)c1cc(C(F)(F)F)cc(C(F)(F)F)c1 (single isomer, unassigned) [Compound 15]	2.54 nM	104 mL/min/g
COc1ccc(C2C3CCC(=O)N3CCN2C(=O)N(C)[C@H](C)c2cc(C(F)(F)F)cc(C(F)(F)F)c2)c(C)c1 (single isomer, unassigned) [Compound 18]	1.15 nM	>200 mL/min/g
COc1ccc(C2C3CCC(=O)N3CCN2C(=O)N(C)[C@H](C)c2cc(C(F)(F)F)cc(C(F)(F)F)c2)c(C)c1 (single isomer, unassigned) [Compound 19]	38.8 nM	>200 mL/min/g
CCc1ccccc1[C@H]1[C@@H]2CCC(=O)N2CCN1C(=O)N(C)[C@H](C)c1cc(C(F)(F)F)cc(C(F)(F)F)c1 (single isomer, unassigned) [Compound 69]	11 nM	>200 mL/min/g
CCc1cc([C@@H](C)N(C)C(=O)N2CCN3C(=O)CC[C@H]3[C@@H]2c2ccccc2CC)cc(C(F)(F)F)c1 (single isomer, unassigned) [Compound 70]	0.94 nM	>200 mL/min/g
CCc1cc([C@@H](C)N(C)C(=O)N2CCN3C(=O)CC[C@H]3[C@@H]2c2ccccc2CC)cc(C(F)(F)F)c1 (single isomer, unassigned) [Compound 71]	49 nM	>200 mL/min/g

Continued by falling IC50 (NK1 Receptor), values first:

IC50 (NK1 Receptor)	Human in vitro Clint [1]	Compound
0.613 nM	>200 mL/min/g	Cc1cc(F)ccc1C1C2CC(CCO)(CCO)C(=O)N2CCN1C(=O)N(C)[C@H](C)c1cc(Cl)cc(C(F)(F)F)c1 (single isomer, unassigned) [Compound 11]
0.437 nM	>200 mL/min/g	Cc1cc([C@@H](C)N(C)C(=O)N2CCN3C(=O)CCC3C2c2ccc(C)cc2C)cc(C(F)(F)F)c1 (single isomer, unassigned) [Compound 5]
0.243 nM	>200 mL/min/g	CCc1cc([C@@H](C)N(C)C(=O)N2CCN3C(=O)C(CCO)(CCO)CC3C2c2ccc(OC)cc2C)cc(C(F)(F)F)c1 (stereo partly drawn) [Compound 16]
0.094 nM	>200 mL/min/g	Cc1cc(F)ccc1C1C2CC(CCO)(CCO)C(=O)N2CCN1C(=O)N(C)[C@H](C)c1cc(C(F)(F)F)cc(C(F)(F)F)c1 (single isomer, unassigned) [Compound 14]
0.08 nM	>200 mL/min/g	Cc1ccc(C2C3CC(CCO)(CCO)C(=O)N3CCN2C(=O)N(C)[C@H](C)c2cc(C(F)(F)F)cc(C(F)(F)F)c2)c(C)c1 (single isomer, unassigned) [Compound 7]
0.063 nM	>200 mL/min/g	Cc1cc(F)ccc1C1C2CC(CCO)(CCO)C(=O)N2CCN1C(=O)N(C)[C@H](C)c1cc(Cl)cc(C(F)(F)F)c1 (single isomer, unassigned) [Compound 10]
0.034 nM	>200 mL/min/g	Cc1cc([C@@H](C)N(C)C(=O)N2CCN3C(=O)C(CCO)(CCO)CC3C2c2ccc(F)cc2C)cc(C(F)(F)F)c1 (single isomer, unassigned) [Compound 13]
